From US10752596B2, “Nitrogen-containing heteroaryl compound and pharmaceutical use thereof” (JAPAN TOBACCO INC., priority 2017, dated 2020)

biological target: human GLUT9 (Homo sapiens (Human), UniProt Q9NRM0); assay: Evaluation of human GLUT9 inhibitory activity ([14C] uric acid uptake in human GLUT9 expressing HEK293T cells transduced with Uricase/Hyper); format: cell-based; conditions: HEK-293T, 10 μM compound, human GLUT9 stably expressing HEK293T cells, read-out: GLUT9 inhibitory rate at 10 μM of compound
Description: A method for measuring GLUT9 inhibitory activity using human GLUT9 expressing cells transduced with Uricase/Hyper is shown hereinafter. GLUT9 inhibitory activity ([…]) of the test compound was calculated based on the intracellular uptake amount of labeled uric acid ([^14C] uric acid) transported by GLUT9.
1. Preparation of Human GLUT9 Expression Plasmid
Human GLUT9S coding region (NM_001001290.1) was amplified by PCR method using PrimeSTAR MAX DNA Polymerase (Takara Bio). The obtained PCR product was subjected to agarose gel electrophoresis, and the desired size of PCR product was purified by QIAquick Gel Extraction Kit (QIAGEN). Next, pEBMulti-Bsd vector (Wako Pure Chemical Industries, Ltd.) was subjected to digestion using restriction enzymes SalI and EcoR V, and linked to the PCR product containing GLUT9S by In-Fusion reaction using In-Fusion HD Cloning Kit (Takara Bio). XL10-Gold Competent Cells (Agilent Technologies) were transformed in In-Fusion reaction solution, and the obtained transfectants were cultured with shaking overnight in LB medium to which Blasticidin S HCl (Thermo Fisher Scientific) was added. Human GLUT9 expression plasmid DNA was prepared from the collected transfectants using EndoFree Plasmid Kit (Takara Bio).
2. Establish of Human GLUT9 Stably Expressing Cell
HEK293T cells (American Type Culture Collection, DS Pharma Biomedical) were seeded in a 6 well plate at 1×10^6 cells/well. Next day, human GLUT9 expression plasmid was transfected by using Lipofectamine 3000 Reagent (Thermo Fisher Scientific) as follows. Lipofectamine 3000 Reagent (5 μL) was diluted with Opti-MEM (125 μL, Thermo Fisher Scientific). Separately, plasmid DNA (2.5 μg) was diluted with Opti-MEM (125 μL), and P3000 Reagent (5 μL) was added thereto. The obtained solution was mixed with the previously obtained diluted solution, and the mixture was left stand at room temperature for 5 min, and added to the cells. Next day, the transfected cells were diluted and reseeded in a 6 well plate at 4×10^5 cells/well, and drug selection was performed in the presence of 30 μg/mL of Blasticidin S HCl, and thereby, Blasticidin-resistant human GLUT9 stably expressing cell line was established. Mock cells were prepared by introducing pEBMulti-Bsd vector into HEK293T cells in a similar manner.
3. Preparation of Uricase/Hyper Expression Plasmid
Uricase/Hyper expression plasmid was prepared by linking the coding regions of Aspergillus Flavus-derived uricase gene and pHyPer-Cyto vector (Evrogen) HyPer gene to the pEBMulti-Hyg vector (Wako Pure Chemical Industries, Ltd.) and then introducing it. The preparation method was performed by reference to Gout and Nucleic Acid Metabolism 2013, 37(2), 93-101, and seven repeated linker sequence of glycine-glycine-glycine-serine was prepared herein.
4. Preparation of Human GLUT9-Uricase/Hyper Coexpressing Cell
Human GLUT9 stably expressing cells were seeded at 3.6×10^7 cells per 225 cm^2 flask. Next day, Uricase/Hyper expression plasmid was transfected by using Lipofectamine 3000 Reagent as follows. Lipofectamine 3000 Reagent (40 μL) was diluted with Opti-MEM (750 μL). Separately, plasmid DNA (20 μg) was diluted with Opti-MEM (750 μL), and P3000 Reagent (40 μL) was added thereto. The obtained solution was mixed with the previously obtained diluted solution, and the mixture was left stand at room temperature for 5 min, and added to the cells. Next day, transfected cells were collected to prepare human GLUT9-Uricase/Hyper coexpressing cells.
5. Evaluation of GLUT9 Inhibitory Activity
Uricase/Hyper transiently-transfected human GLUT9 stably expressing cells or mock cells (blank) were seeded in a 96 well plate (Corning) at 1.6×10^5 cells/well, and cultured overnight at 37° C., 5% CO2. D-MEM/high glucose (Wako Pure Chemical Industries, Ltd.) containing 10% Fetal Bovine Serum (Lifetechnology) and 100 units/ml penicillin/100 μg/ml streptomycin (GIBCO) was used as a medium.

Chain of human GLUT9 (Q9NRM0 other isoform, or with tags, fused parts or gaps): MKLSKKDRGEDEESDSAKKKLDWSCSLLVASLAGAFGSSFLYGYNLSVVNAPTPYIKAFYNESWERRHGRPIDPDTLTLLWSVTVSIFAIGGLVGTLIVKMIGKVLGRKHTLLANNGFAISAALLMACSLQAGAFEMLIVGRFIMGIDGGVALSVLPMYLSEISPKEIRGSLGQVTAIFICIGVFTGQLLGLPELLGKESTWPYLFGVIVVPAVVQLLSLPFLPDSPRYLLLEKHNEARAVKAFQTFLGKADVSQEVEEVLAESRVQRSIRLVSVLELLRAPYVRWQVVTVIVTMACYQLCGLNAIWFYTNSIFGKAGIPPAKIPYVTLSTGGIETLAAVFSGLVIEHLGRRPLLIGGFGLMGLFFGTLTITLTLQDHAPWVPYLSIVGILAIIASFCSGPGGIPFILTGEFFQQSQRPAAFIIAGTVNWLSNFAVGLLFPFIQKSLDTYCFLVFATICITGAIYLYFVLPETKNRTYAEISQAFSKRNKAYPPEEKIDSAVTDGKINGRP

Row | inhibition at 10 µM [%] | SMILES
1 | 47 | COc1ccc(-c2ncc(CC3CCCCC3)cc2-c2ccc(C(=O)O)cc2)cc1 [Example 47]

same assay, conditions: final 300 μM uric acid, 6 min, human GLUT9 stably expressing HEK293T cells, read-out: humans GLUT9 inhibitory activity (IC50 value (μM))

Row | IC50 [µM] | SMILES
2 | 0.0799 | COCCCc1cnc(-c2cc(F)c(OC)c(F)c2)c(-c2ccc(C(=O)O)c(C)c2)n1 [Example 109]
3 | 0.0604 | CCCCc1cnc(-c2ccc(OC)cc2)c(-c2ccc(C(=O)O)c(C)c2)c1 [Example 114]
4 | 0.184 | CCCCc1cnc(-c2ccc(OC)cc2)c(-c2ccc(CCC(=O)O)c(F)c2)n1 [Example 93]
5 | 0.525 | CCOCCc1cnc(-c2cc(F)c(OC)c(F)c2)c(-c2ccc(CCC(=O)O)cc2)n1 [Example 134]
6 | 0.344 | COc1ccc(-c2ncc(C(C)C)cc2-c2ccc(C(=O)O)cc2)cc1 [Example 57]
7 | 0.0521 | COCCCCc1cnc(-c2cc(F)c(OC)c(F)c2)c(-c2ccc(C(=O)O)c(C)c2)c1 [Example 130]
8 | 0.313 | CCOCCc1cnc(-c2cc(F)c(OC)c(F)c2)c(-c2ccc(C(=O)O)c(C)c2)n1 [Example 133]
9 | 0.0639 | CCOCCc1cnc(-c2cc(F)c(OC)c(F)c2)c(-c2ccc(C(=O)O)c(C)c2)c1 [Example 141]
10 | 0.052 | COc1ccc(-c2ncc(CC(C)C)cc2-c2ccc(C(=O)O)cc2)cc1 [Example 58]
11 | 0.0684 | COCCCc1cnc(-c2ccc(OC)cc2)c(-c2ccc(C(=O)O)c(C)c2)c1 [Example 116, 4-(2-(4-methoxyphenyl)-5-(3-methoxypropyl)pyridin-3-yl)-2-methylbenzoic Acid]
12 | 0.104 | CCOCCc1cnc(-c2ccc(OC)cc2)c(-c2ccc(C(=O)O)cc2)c1 [Example 73]
13 | 0.0497 | COCCCCc1cnc(-c2ccc(OC)cc2)c(-c2ccc(C(=O)O)c(C)c2)c1 [Example 126]
14 | 0.561 | COCCCc1cnc(-c2cc(F)c(OC)c(F)c2)c(-c2ccc(C(=O)O)c(F)c2)n1 [Example 112]
15 | 0.164 | COc1ccc(-c2ncc(Cc3ccccc3)cc2-c2ccc(C(=O)O)cc2)cc1 [Example 101]
16 | 0.0807 | COCCCCc1cnc(-c2cc(F)c(OC)c(F)c2)c(-c2ccc(CCC(=O)O)cc2)n1 [Example 148]
17 | 0.0946 | CCCCc1cnc(-c2cc(Cl)c(OC)c(Cl)c2)c(-c2ccc(C(=O)O)cc2)n1 [Example 65]

Row | IC50 [µM] | SMILES
18 | 0.992 | CCCCc1cnc(-c2ccc(C(F)(F)F)c(OC)c2)c(-c2ccc(C(=O)O)cc2)n1 [Example 23]
19 | 0.0819 | CCCCc1cnc(-c2ccc(OC)c(Cl)c2)c(-c2ccc(C(=O)O)cc2)n1 [Example 16]
20 | 0.0887 | COc1ccc(-c2ncc(CC3CC3)cc2-c2ccc(C(=O)O)cc2)cc1 [Example 96]
21 | 0.499 | CCOCCc1cnc(-c2ccc(OC)cc2)c(-c2ccc(C(=O)O)c(Cl)c2)c1 [Example 138]
22 | 0.0826 | CCCCc1cnc(-c2ccc(OC)cc2)c(-c2ccc(C(=O)O)c(CC)c2)n1 [Example 111]
23 | 0.134 | CCCCc1cnc(-c2ccc(C(F)(F)F)c(F)c2)c(-c2ccc(C(=O)O)cc2)n1 [Example 24]
24 | 0.154 | CCCCc1cnc(-c2ccc(C(F)(F)F)c(C)c2)c(-c2ccc(C(=O)O)cc2)n1 [Example 26]
25 | 0.0888 | CCCCc1cnc(-c2ccc3c(c2)CCO3)c(-c2ccc(C(=O)O)cc2)n1 [Example 32]
26 | 0.946 | CCCCc1cnc(-c2ccc(OC)cc2C)c(-c2ccc(C(=O)O)cc2)n1 [Example 2]
27 | 0.0626 | CCCCc1cnc(-c2ccc(OC)cc2)c(-c2ccc(C(=O)O)cc2F)n1 [Example 5]
28 | 0.119 | COc1ccc(-c2ncc(CCC3CC3)cc2-c2ccc(C(=O)O)cc2)cc1 [Example 52]
29 | 0.0659 | CCCCc1cnc(-c2ccc(OC)c(F)c2)c(-c2ccc(C(=O)O)cc2)n1 [Example 11]
30 | 0.226 | CCOCCc1cnc(-c2cc(F)c(OC)c(F)c2)c(-c2ccc(C(=O)O)c(Cl)c2)c1 [Example 142]
31 | 0.201 | CCCCc1cnc(-c2ccc3c(c2)CCCO3)c(-c2ccc(C(=O)O)cc2)n1 [Example 49]
32 | 0.0917 | CCOCCc1cnc(-c2ccc(OC)cc2)c(-c2ccc(C(=O)O)c(C)c2)c1 [Example 137]
